One assay deals with T1, STAT6 (Homo sapiens, UniProt P42226).
T1 construct: stably transfected HaCaT keratinocyte cell line, which expresses NanoLuc luciferase reporter gene under the transcriptional control of the STAT6 responsive promoter; endogenous in cells; host or cells: HaCaT keratinocyte reporter cell line (stably transfected with a NanoLuc reporter)
T1 sequence (P42226 1-847): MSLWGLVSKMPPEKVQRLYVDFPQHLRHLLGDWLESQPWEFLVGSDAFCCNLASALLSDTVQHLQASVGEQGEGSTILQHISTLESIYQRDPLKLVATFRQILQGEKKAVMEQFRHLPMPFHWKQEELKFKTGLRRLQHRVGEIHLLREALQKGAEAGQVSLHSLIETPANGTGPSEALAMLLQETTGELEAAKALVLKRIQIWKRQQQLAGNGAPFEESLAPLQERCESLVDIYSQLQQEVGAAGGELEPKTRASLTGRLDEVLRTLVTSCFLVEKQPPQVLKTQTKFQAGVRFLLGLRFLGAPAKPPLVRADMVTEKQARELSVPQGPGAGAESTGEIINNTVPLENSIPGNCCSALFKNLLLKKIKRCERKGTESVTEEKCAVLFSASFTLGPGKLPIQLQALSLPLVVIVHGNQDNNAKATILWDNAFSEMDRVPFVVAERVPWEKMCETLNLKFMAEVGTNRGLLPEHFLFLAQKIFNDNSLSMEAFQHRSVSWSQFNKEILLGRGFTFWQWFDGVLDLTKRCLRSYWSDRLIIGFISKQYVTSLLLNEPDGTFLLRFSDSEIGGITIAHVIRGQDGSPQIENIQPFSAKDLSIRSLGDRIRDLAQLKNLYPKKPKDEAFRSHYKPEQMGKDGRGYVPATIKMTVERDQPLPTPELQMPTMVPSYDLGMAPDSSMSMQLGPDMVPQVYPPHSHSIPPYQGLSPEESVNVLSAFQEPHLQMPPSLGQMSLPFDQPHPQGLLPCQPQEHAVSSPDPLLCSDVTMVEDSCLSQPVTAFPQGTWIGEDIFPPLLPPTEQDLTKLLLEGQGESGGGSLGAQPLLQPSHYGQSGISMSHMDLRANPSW
The experiment in a line: STAT6 Reporter Luciferase Assay (IL-13 stimulated HaCaT keratinocyte NanoLuc reporter cells). The note with it: IL-13 stimulated HaCaT STAT6 NanoLuc reporter cells; read-out: Reporter EC50. The format is cell-based. A digest of the protocol: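 IL-13 (0.12 nM, 4 h) stimulated STAT6 reporter activity in HaCaT cells after a 2 h compound pre-incubation; NanoLuc signal was measured.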

The test system of assay [1] is CCL17 secretion in peripheral human whole blood. As to the kind of experiment: Human Whole Blood (HWB) CCL17 TR-FRET Assay (IL-13 stimulated CCL17 secretion). The format is cell-based. Particulars: human whole blood, IL-13 stimulated. A digest of the protocol:
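Compounds are titrated (11 points, 3-fold, duplicate) into fresh heparinized human whole blood and held 2 h at 37 °C before IL-13 challenge (10 ng/mL final). After 48 h at 37 °C, serum CCL17 is measured by TR-FRET sandwich assay and IC50 values are calculated.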

Usually EC50 stands for the concentration giving half of the maximal effect. For orientation: IC50 means the concentration needed to halve the response being measured.

With `CCC1CN(c2ccc(C(=O)N(C)C)cn2)Cc2c(C(=O)NCc3ccc(NC(=O)N(C)C)cc3)nn(C(C)C)c21` (single isomer, unassigned) [Example 310, rel-(R or S)-5-(5-(dimethylcarbamoyl)pyridin-2-yl)-N-(4-(3,3-dimethylureido)benzyl)-7-ethyl-1-isopropyl-4,5,6,7-tetrahydro-1H-pyrazolo[4,3-c]pyridine-3-carboxamide], the half-maximal effective concentration (EC50) on STAT6 worked out at 8 nM. Besides, in assay [1] (48 hours), the IC50 was found to be 115 nM.
The like results for `CCC1CN(c2ccc(C(=O)N(C)C)cn2)Cc2c(C(=O)NCc3ccc(NC(=O)N(C)C)cc3)nn(C(C)C)c21` (single isomer, unassigned) [Example 311, rel-(R or S)-5-(5-(dimethylcarbamoyl)pyridin-2-yl)-N-(4-(3,3-dimethylureido)benzyl)-7-ethyl-1-isopropyl-4,5,6,7-tetrahydro-1H-pyrazolo[4,3-c]pyridine-3-carboxamide] were, in that order, 1 nM and 11 nM.
As to `CCC1CN(c2ccc(C(=O)N(C)C)cn2)Cc2c(C(=O)NCc3ccc(NC(=O)N(C)C)cc3)nn(CC)c21` (single isomer, unassigned) [Example 312, rel-(R or S)-5-(5-(dimethylcarbamoyl)pyridin-2-yl)-N-(4-(3,3-dimethylureido)benzyl)-1,7-diethyl-4,5,6,7-tetrahydro-1H-pyrazolo[4,3-c]pyridine-3-carboxamide], at STAT6, the EC50 amounted to 10 nM. This compound also gave a half-inhibitory concentration (IC50) in assay [1] (48 hours) of 163 nM.
On the same counts, the results for `CCC1CN(c2ccc(C(=O)N(C)C)cn2)Cc2c(C(=O)NCc3ccc(NC(=O)N(C)C)cc3)nn(CC)c21` (single isomer, unassigned) [Example 313, rel-(R or S)-5-(5-(dimethylcarbamoyl)pyridin-2-yl)-N-(4-(3,3-dimethylureido)benzyl)-1,7-diethyl-4,5,6,7-tetrahydro-1H-pyrazolo[4,3-c]pyridine-3-carboxamide] are 1 nM and 15 nM.
As for `CCC(C)n1nc(C(=O)NCc2ccc(NC(=O)N(C)C)cc2)c2c1[C@@H](C)CN(c1ccc(C(=O)N(C)C)cn1)C2` (single isomer, unassigned) [Example 318, (S)-1-((R*)-sec-butyl)-5-(5-(dimethylcarbamoyl)pyridin-2-yl)-N-(4-(3,3-dimethylureido)benzyl)-7-methyl-4,5,6,7-tetrahydro-1H-pyrazolo[4,3-c]pyridine-3-carboxamide], the EC50 on STAT6 turned out to be 0.4 nM. Also, the IC50 in assay [1] (48 hours) stood at 4 nM.
On the same counts, the results for `CCC(C)n1nc(C(=O)NCc2ccc(NC(=O)N(C)C)cc2)c2c1[C@@H](C)CN(c1ccc(C(=O)N(C)C)cn1)C2` (single isomer, unassigned) [Example 319, (S)-1-((R*)-sec-butyl)-5-(5-(dimethylcarbamoyl)pyridin-2-yl)-N-(4-(3,3-dimethylureido)benzyl)-7-methyl-4,5,6,7-tetrahydro-1H-pyrazolo[4,3-c]pyridine-3-carboxamide] are 1 nM and 13 nM.
Regarding `CC(C)n1nc(C(=O)NCc2ccc(-c3ncc[nH]3)cc2)c2c1[C@@H](C)CN(c1ncc(C(=O)N(C)C)cn1)C2` (single isomer, unassigned) [Example 335], the half-maximal effective concentration (EC50) on STAT6 amounted to 1 nM. In addition, in assay [1] (Homo sapiens, 48 h), the IC50 amounted to 5 nM.
Consider `CCC1CN(c2ccc(C(=O)N(C)C)cn2)Cc2c(C(=O)NCc3ccc(NC(=O)N(C)C)cc3)nc(C)n21` (single isomer, unassigned) [Example 336, rel-(R or S)-7-(5-(dimethylcarbamoyl)pyridin-2-yl)-N-(4-(3,3-dimethylureido)benzyl)-5-ethyl-3-methyl-5,6,7,8-tetrahydroimidazo[1,5-a]pyrazine-1-carboxamide], for which the half-maximal effective concentration (EC50) at STAT6 amounted to 14 nM. For the same compound, the IC50 in assay [1] (Homo sapiens, 48 h) was 41 nM.
For `CC(CC#N)n1nc(C(=O)NCc2ccc(NC(=O)N(C)C)cc2)c2c1CCN(c1ccc(C(=O)N(C)C)cn1)C2` (single isomer, unassigned) [Example 347, rel-(R or S)-1-(1-cyanopropan-2-yl)-5-(5-(dimethylcarbamoyl)pyridin-2-yl)-N-(4-(3,3-dimethylureido)benzyl)-4,5,6,7-tetrahydro-1H-pyrazolo[4,3-c]pyridine-3-carboxamide], the EC50 on STAT6 is 83 nM. The 50% inhibitory concentration (IC50) in assay [1] (48 hours) stood at 127 nM.
Turning to `CC(CC#N)n1nc(C(=O)NCc2ccc(NC(=O)N(C)C)cc2)c2c1CCN(c1ccc(C(=O)N(C)C)cn1)C2` (single isomer, unassigned) [Example 348, rel-(R or S)-1-(1-cyanopropan-2-yl)-5-(5-(dimethylcarbamoyl)pyridin-2-yl)-N-(4-(3,3-dimethylureido)benzyl)-4,5,6,7-tetrahydro-1H-pyrazolo[4,3-c]pyridine-3-carboxamide], the EC50 on STAT6 stood at 43 nM. The half-maximal inhibitory concentration (IC50) in assay [1] (48 hours) was 36 nM.
Regarding `CCn1nc(C(=O)NCc2ccc(NC(=O)N(C)C)cc2)c2c1[C@@H](C)[C@H](C)N(c1ccc(C(=O)N(C)C)cn1)C2` (single isomer, unassigned) [Example 352], the concentration giving a half-maximal response (EC50) on STAT6 is 0.3 nM. Besides, 3 nM corresponded to half-maximal inhibition in assay [1] (Homo sapiens, 48 h) (IC50).
The like results for `CCn1nc(C(=O)NCc2ccc(NC(=O)N(C)C)cc2)c2c1[C@H](C)[C@@H](C)N(c1ccc(C(=O)N(C)C)cn1)C2` (single isomer, unassigned) [Example 353] were, in that order, 4 nM and 47 nM.
On the same counts, the results for `CC(C)n1nc(C(=O)NCc2ccc(NC(=O)N(C)C)cc2)c2c1[C@H](C)[C@@H](C)N(c1ccc(C(=O)N(C)C)cn1)C2` (single isomer, unassigned) [Example 354] are 4 nM and 24 nM.
In the case of `CC(C)n1nc(C(=O)NCc2ccc(NC(=O)N(C)C)cc2)c2c1[C@@H](C)[C@H](C)N(c1ccc(C(=O)N(C)C)cn1)C2` (single isomer, unassigned) [Example 355], the EC50 at STAT6 stood at 0.2 nM. Inhibition in assay [1] (Homo sapiens, 48 h) was half-maximal at 3 nM (IC50).
Take `CNC(=O)c1ccc(CNC(=O)c2nn(C(C)C)c3c2CN(c2ccc(C(=O)N(C)C)cn2)CC3C(F)(F)F)cc1` (single isomer, unassigned) [Example 356, rel-(R or S)-5-(5-(dimethylcarbamoyl)pyridin-2-yl)-1-isopropyl-N-(4-(methylcarbamoyl)benzyl)-7-(trifluoromethyl)-4,5,6,7-tetrahydro-1H-pyrazolo[4,3-c]pyridine-3-carboxamide]: the concentration giving a half-maximal response (EC50) at STAT6 is 246 nM. This compound came in with a half-maximal inhibitory concentration (IC50) in assay [1] (48 hours) of 3310 nM.
The like results for `CNC(=O)c1ccc(CNC(=O)c2nn(C(C)C)c3c2CN(c2ccc(C(=O)N(C)C)cn2)CC3C(F)(F)F)cc1` (single isomer, unassigned) [Example 357, rel-(R or S)-5-(5-(dimethylcarbamoyl)pyridin-2-yl)-1-isopropyl-N-(4-(methylcarbamoyl)benzyl)-7-(trifluoromethyl)-4,5,6,7-tetrahydro-1H-pyrazolo[4,3-c]pyridine-3-carboxamide] were, in that order, 1 nM and 20 nM.
The like results for `CC(CO)n1nc(C(=O)NCc2ccc(NC(=O)N(C)C)cc2)c2c1CCN(c1ccc(C(=O)N(C)C)cn1)C2` (single isomer, unassigned) [Example 359, rel-(R or S)-5-(5-(dimethylcarbamoyl)pyridin-2-yl)-N-(4-(3,3-dimethylureido)benzyl)-1-(1-hydroxypropan-2-yl)-4,5,6,7-tetrahydro-1H-pyrazolo[4,3-c]pyridine-3-carboxamide] were, in that order, 358 nM and 869 nM.
Regarding `CC(CO)n1nc(C(=O)NCc2ccc(NC(=O)N(C)C)cc2)c2c1CCN(c1ccc(C(=O)N(C)C)cn1)C2` (single isomer, unassigned) [Example 360, rel-(R or S)-5-(5-(dimethylcarbamoyl)pyridin-2-yl)-N-(4-(3,3-dimethylureido)benzyl)-1-(1-hydroxypropan-2-yl)-4,5,6,7-tetrahydro-1H-pyrazolo[4,3-c]pyridine-3-carboxamide], the EC50 on STAT6 came out at 74 nM. This compound also had an IC50 in assay [1] (48 hours) of 91 nM.
